What all share (format): in vivo
One series concerns Tetranychus urticae. Briefly: Tetranychus urticae spray test OP-resistant. As to conditions: foliar, 144 h, after 6 days, French bean leaf disks. As to the method:
Tetranychus urticae—Spray Test OP-Resistant
(§1) To produce a suitable preparation of active compound, 1 part by weight of active compound is mixed with the stated amount of solvents and is diluted with water, containing an emulsifier concentration of 1000 ppm, to the desired concentration. Further test concentrations are prepared by dilution with emulsifier containing water.
French bean (Phaseolus vulgaris) leaf disks infected with all instars of the two spotted spidermite (Tetranychus urticae), are sprayed with a preparation of the active ingredient of the desired concentration.
After 6 days mortality in % is determined. 100% means all spider mites have been killed and 0% means none of the spider mites have been killed.

The test system of a further series is Phaedon cochleariae. Briefly: Phaedon cochleariae spray test. As to conditions: for mortality at 500 g/ha: Phaedon cochleariae, in Brassica rapa, foliar, 168 h, read-out: mortality in %. As to the method:
Phaedon cochleariae—Spray Test
as §1
Chinese cabbage (Brassica pekinensis) leaf disks are sprayed with a preparation of the active ingredient of the desired concentration. Once dry, the leaf disks are infested with mustard beetle larvae (Phaedon cochleariae).
After 7 days mortality in % is determined. 100% means all beetle larvae have been killed and 0% means none of the beetle larvae have been killed.

Series [1] relates to Nezara viridula. As to the kind of experiment: Nezara viridula spray test (barley plants, mortality). The following applies: for mortality at 20 g/ha / mortality at 100 g/ha / mortality at 500 g/ha: Nezara viridula, 96 h, read-out: mortality in %. The procedure: (§2) Nezara viridula—Spray Test
To produce a suitable preparation of active compound, 1 part by weight of active compound is mixed with the stated amount of solvent, and the concentrate is diluted with water, containing an emulsifier concentration of 1000 ppm, to the desired concentration Ammonium salt and/or penetration enhancer in a dosage of 1000 ppm are added to the desired concentration if necessary.
Barley plants (Hordeum vulgare) infested with larvae of the southern green stink bug (Nezara viridula) are sprayed with a test solution containing the desired concentration of the active ingredient.
After 4 days, mortality in % is determined. 100% means all the stink bugs have been killed; 0% means none of the stink bugs have been killed.

The next series concerns Meloidogyne incognita. As to the kind of experiment: Meloidogyne incognita test. As to conditions: 20 ppm; after 14 days; salad seedlings, eggs and larvae. The procedure:
Meloidogyne incognita—Test
To produce a suitable preparation of active compound, 1 part by weight of active compound is mixed with the stated amount of solvent, and the concentrate is diluted with water to the desired concentration.
Vessels are filled with sand, a solution of the active ingredient, a suspension containing eggs and larvae of the southern root-knot nematode (Meloidogyne incognita) and salad seeds. The salad seeds germinate and the seedlings grow. Galls develop in the roots.
After 14 days the nematicidal activity is determined on the basis of the percentage of gall formation. 100% means no galls were found and 0% means the number of galls found on the roots of the treated plants was equal to that in untreated control plants.

Another series relates to Nilaparvata lugens. As to the kind of experiment: Nilaparvata lugens spray test. The following applies: 96 h, after 4 days, rice plants, larvae. The procedure:
Nilaparvata lugens—Spray Test
To produce a suitable preparation of active compound, 1 part by weight of active compound is mixed with the stated amount of solvents and is diluted with water, containing an emulsifier concentration of 1000 ppm, to the desired concentration. Further test concentrations are prepared by dilution with emulsifier containing water. Ammonium salt and/or penetration enhancer in a dosage of 1000 ppm are added to the desired concentration if necessary.
Rice plants (Oryza sativa) are treated by being sprayed with the desired concentration of the active compound and are infested with larvae of the brown planthopper (Nilaparvata lugens).
After 4 days mortality in % is determined. 100% means all planthoppers have been killed and 0% means none of the planthoppers have been killed.

A further series deals with Euschistus heros. As to the kind of experiment: Euschistus heros spray test (feeding control). As to conditions: 100 ppm; after 3 days; kidney bean plants, larvae. As to the method:
Euschistus heros—Spray Test
(§3) To produce a suitable preparation of active compound, 1 part by weight of active compound is mixed with the stated amount of solvent and is diluted with water to the desired concentration. Further test concentrations are prepared by dilution with water Ammonium salt and/or penetration enhancer (rapeseed oil methyl esters) in a dosage of 1000 ppm are added to the desired concentration if necessary.
Kidney bean plants (Phaseolus vulgaris) are treated by being sprayed with the preparation of the active compound of the desired concentration and are infested with 10 larvae per plant of the brown stink bug (Euschistus heros).
(§4) After 3 days feeding control in % is determined. 100% means there is no feeding damage visible and 0% means the plant damage corresponds to that of the untreated control plants.

The subject of the next series is Spodoptera frugiperda. As to the kind of experiment: Spodoptera frugiperda spray test. The following applies: 168 h, after 7 days, maize leaf sections, larvae. As to the method: Spodoptera frugiperda—Spray Test
as §1
Maize (Zea mays) leaf sections are sprayed with a preparation of the active ingredient of the desired concentration. Once dry, the leaf sections are infested with fall armyworm larvae (Spodoptera frugiperda).
After 7 days mortality in % is determined. 100% means all caterpillars have been killed and 0% means none of the caterpillars have been killed.

Another series has as its system Diabrotica balteata. As to the kind of experiment: Diabrotica balteata spray test. As to conditions: 160 μg/well; after 7 days; wheat seeds, larvae of banded cucumber beetle. As to the method: Diabrotica balteata-Spray Test
To produce a suitable preparation of active compound, 1 part by weight of active compound is mixed with the stated amount of solvent, and the concentrate is diluted with water, containing an emulsifier concentration of 1000 ppm, to the desired concentration. Further test concentrations are prepared by dilution with emulsifier containing water.
Soaked wheat seeds (Triticum aestivum) are placed in a multiple well plate filled with agar and some water and are incubated for 1 day to germinate (5 seeds per well). The germinated wheat seeds are sprayed with a test solution containing the desired concentration of the active ingredient. Afterwards each unit is infected with 10-20 larvae of the banded cucumber beetle (Diabrotica balteata).
After 7 days efficacy in % is determined. 100% means all the seedlings have grown up like in the untreated, uninfected control; 0% means none of the seedlings have grown.

Series [2] has as its system Nezara viridula. As to the kind of experiment: Nezara viridula spray test (cotton plants, feeding control). As to conditions: 100 ppm, after 3 days, larvae. As to the method: as §2, §3
Cotton plants (Gossypium hirsutum) are treated by being sprayed with the preparation of the active compound of the desired concentration and are infested with 10 larvae per plant of the green plant bug (Nezara viridula).
as §4

One may read the mortality as the percentage killed.

SMILES strings stand for the structures.

Take `O=C(Nc1nc(-c2c(F)cc(C(F)(F)F)cc2F)ns1)c1cccnc1C(F)(F)F` [Compound I-1-1]: the values for the mortality at 500 g/ha in the series on Tetranychus urticae and in the series with Phaedon cochleariae were 90% and 100%, respectively.
Take `O=C(Nc1nc(-c2c(F)ccc(C(F)(F)F)c2F)ns1)c1cccnc1C(F)(F)F` [Compound I-1-2, N-{3-[2,6-difluoro-3-(trifluoromethyl)phenyl]-1,2,4-thiadiazol-5-yl}-2-(trifluoromethyl)nicotinamide]: the mortality at 20 g/ha in the series with Nezara viridula [1] worked out at 100%. In the series on Nezara viridula [1], the mortality at 100 g/ha amounted to 100%. For the same compound, the mortality at 500 g/ha was 100% in the series with Nezara viridula [1]; 90% in the series on Tetranychus urticae; at least 90% with Nilaparvata lugens; 100% in the series on Phaedon cochleariae; at least 83% with Spodoptera frugiperda. Moreover, the “nematicidal activity (% reduction of galls vs untreated control)” value in the series with Meloidogyne incognita amounted to 90%. Moreover, in the series with Euschistus heros, the “feeding control in %” value is given as 85%.
For the compound `O=C(Nc1nc(-c2c(F)ccc(C(F)(F)F)c2F)ns1)c1ccccc1C(F)(F)F` [Compound I-1-3, N-{3-[2,6-difluoro-3-(trifluoromethyl)phenyl]-1,2,4-thiadiazol-5-yl}-2-(trifluoromethyl)benzamide], in the series on Nezara viridula [1], the mortality at 100 g/ha turned out to be 100%. In addition, the mortality at 500 g/ha with Nezara viridula [1] and in the series on Phaedon cochleariae was 100% each time.
On to `O=C(Nc1nc(-c2c(F)ccc(Cl)c2F)ns1)c1cccnc1C(F)(F)F` [Compound I-1-6, N-[3-(3-chloro-2,6-difluorophenyl)-1,2,4-thiadiazol-5-yl]-2-(trifluoromethyl)nicotinamide], for which, in the series on Nezara viridula [1], the mortality at 20 g/ha was found to be 100%. Besides, the mortality at 100 g/ha in the series with Nezara viridula [1] was determined as 100%. The mortality at 500 g/ha in the series on Nezara viridula [1] is 100%; in the series on Tetranychus urticae it was 90%; in the series on Phaedon cochleariae, 100%; in the series with Spodoptera frugiperda, at least 83%.
Consider `O=C(Nc1nc(-c2cc(F)cc(F)c2F)ns1)c1ccccc1Cl` [Compound I-1-21], for which, in the series on Nezara viridula [1] (500 g/ha, after 4 days, barley plants, larvae), the mortality in % is recorded as 80%.
Regarding `O=C(Nc1nc(-c2c(F)ccc(F)c2F)ns1)c1cccnc1C(F)(F)F` [Compound I-1-24], the “nematicidal activity (% reduction of galls vs untreated control)” value with Meloidogyne incognita worked out at 90%. The same compound returned an efficacy in % with Diabrotica balteata of 100%.
Regarding `O=C(Nc1nc(-c2c(F)ccc(F)c2F)ns1)c1cccnc1C(F)F` [Compound I-1-27], the “feeding control in %” value in the series on Nezara viridula [2] is 100%.
For the compound `O=C(Nc1nc(-c2c(F)ccc(F)c2F)ns1)c1ccccc1Cl` [Compound I-1-30], in the series with Meloidogyne incognita, the “nematicidal activity (% reduction of galls vs untreated control)” value came out at 90%. In the series on Diabrotica balteata, the efficacy in % amounted to 100%.
Take `O=C(Nc1nc(-c2c(F)c(F)cc(F)c2F)ns1)c1cccnc1C(F)(F)F` [Compound I-1-33]: the “nematicidal activity (% reduction of galls vs untreated control)” value in the series on Meloidogyne incognita worked out at 90%. For the same compound, the “feeding control in %” value with Euschistus heros and in the series on Nezara viridula [2] was 100% in each case. The efficacy in % in the series on Diabrotica balteata worked out at 100%.
On to `O=C(Nc1nc(-c2c(F)c(F)cc(F)c2F)ns1)c1ccccc1C(F)(F)F` [Compound I-1-34], for which the efficacy in % with Diabrotica balteata is reported as 100%.
For the compound `O=C(Nc1nc(-c2c(F)c(F)cc(F)c2F)ns1)c1nccnc1C(F)(F)F` [Compound I-1-35], the “nematicidal activity (% reduction of galls vs untreated control)” value in the series with Meloidogyne incognita was determined as 90%.
In the series on Phaedon cochleariae (500 g/ha, after 7 days, Chinese cabbage leaf disks, larvae), `O=C(Nc1nc(-c2cc(Cl)cc(F)c2F)ns1)c1c(F)cccc1F` [Compound I-1-46] gave a mortality in % of 83%.
On to `O=C(Nc1nc(-c2c(F)ccc(Br)c2F)ns1)c1cccnc1C(F)(F)F` [Compound I-1-51, N-[3-(3-bromo-2,6-difluorophenyl)-1,2,4-thiadiazol-5-yl]-2-(trifluoromethyl)nicotinamide], for which the mortality at 20 g/ha in the series on Nezara viridula [1] turned out to be 100%. In the series with Nezara viridula [1], the mortality at 100 g/ha was 100%. In addition, the mortality at 500 g/ha with Nezara viridula [1] was 100%; with Tetranychus urticae, 90%; in the series with Phaedon cochleariae, 100%; with Spodoptera frugiperda it was at least 83%. Moreover, in the series with Nezara viridula [2], the “feeding control in %” value turned out to be 100%. The compound also gave an efficacy in % in the series with Diabrotica balteata of 100%.
Regarding `Cc1ccc(F)c(-c2nsc(NC(=O)c3cccnc3C(F)(F)F)n2)c1F` [Compound I-1-52, N-[3-(2,6-difluoro-3-methylphenyl)-1,2,4-thiadiazol-5-yl]-2-(trifluoromethyl)nicotinamide], in the series with Nezara viridula [1], the mortality at 100 g/ha is 100% and the mortality at 500 g/ha turned out to be 100%. In addition, in the series with Phaedon cochleariae, the mortality at 500 g/ha amounted to 100%.

The values are drawn from patent US20190382358A1, “HETEROCYCLIC COMPOUNDS AS PESTICIDES” (Bayer CropScience Aktiengesellschaft, priority 2016, published 2019).
